These results are taken from patent US20040077092A1, “Control and calibration material for blood coagulation tests” (priority 2002, published 2004).

Holding throughout (type): biochemical
Assay [1] deals with Citrate plasma that was obtained from rabbits. The assay can be described thus: Prothrombin time test, CoaguChek Pro; prolongation substance added to plasma before lyophilization. To be noted: lyophilized, rehydrated with distilled water, PT. The method, then: Production and Use of the Inventive Control and Calibration Material for the Product CoaguChek® Pro (test for determining the prothrombin time) from Roche Diagnostics
Effect of the Prolongation Substance when Added to Plasma for the Production of the Control and Calibration Material.
Citrate plasma that was obtained from rabbits was processed further as follows.
A portion of the citrate plasma is left untreated and filled in 3.0 ml portions into siliconized vessels and lyophilized. The remainder of the plasma is used to produce preparations to which 2.0%, 3.5% and 5.0% urea (in each case % by weight) is added in each case to the plasma as the prolongation substance. These mixtures are also filled in 3.0 ml portions and lyophilized.
After rehydration of the individual preparations with distilled water, the samples obtained in this manner are added dropwise to test cards of the CoaguChek® Pro from Roche Diagnostics and the seconds which elapse until the onset of coagulation is determined on the accompanying measuring instrument CoaguChek® Pro.

Assay [2] concerns Commercial control material level 1 for the CoaguChek system. Put plainly: Prothrombin time test, CoaguChek system; prolongation substance in the rehydration solution. To be noted: PT. The text has this:
Effect of the Prolongation Substance when Added to the Rehydration Solution
[…] These solutions are subsequently measured with the CoaguChek® system (test plus measuring instrument).

For assay [3], the system named is lyophilized control plasma "ACT quality control CoaguChek Pro system level 1". The assay can be described thus: Activated clotting time (ACT), ACT test cassettes of the CoaguChek Pro system. On the procedure:
Effect of the Prolongation Substances According to the Invention when Added to Control Plasmas to Monitor the Determination of the Activated Clotting Time (ACT)
The lyophilized control plasma “ACT quality control CoaguChek® Pro system level 1” from Roche Diagnostics was rehydrated with the supplied rehydration solution according to the instructions of the manufacturer. 0%, 0.25%, 0.5% and 0.75% guanidine hydrochloride (in each case % by weight) were added to these solutions.

The subject of assay [4] is control plasma "PreClot I/II". The assay can be described thus: aPTT (activated partial thromboplastin time), PTT a reagent, ball coagulometer KC10A. The method, then: Effect of the Inventive Prolongation Substances when Added to Control Plasmas to Monitor the Determination of aPTT (activated partial thromboplastin time)
The control plasma “PreClot I/II” from Roche Diagnostics is rehydrated according to the instructions of the manufacturer with aqueous solutions in which 0%, 2.0%, 3.5% and 5.0% N-methyl urea (in each case % by weight) are dissolved. The “PTT a reagent for the automated and manual determination of the activated partial thromboplastin time” from Roche Diagnostics is used to determine the clotting time in seconds in the control solutions obtained in this manner on a ball coagulometer KC10A from the Amelung Company (Germany).
The experimental protocol is the same as described in example 2a).
The only amendment was that the following concentrations of guanidine hydrochloride were added to the rehydration solution (in each case % by weight): 0%, 0.5% 1.0% and 1.5%.

Setting [5] is: 0.5 % by weight guanidine in the rehydration solution.

Take `NC(N)=O` [urea]: the “time until the onset of coagulation” value is given as 22.9 s in assay [1] (2.0 % by weight urea added to rabbit citrate plasma); 29.6 s in assay [1] (3.5 % by weight urea added to rabbit citrate plasma); 41.2 s in assay [1] (5.0 % by weight urea added to rabbit citrate plasma); 19.3 s in assay [2] (2.0 % by weight urea in the rehydration solution); 28.1 s in assay [2] (3.0 % by weight urea in the rehydration solution); 32.2 s in assay [2] (4.0 % by weight urea in the rehydration solution). Also, the “time until the onset of coagulation” value in assay [2] (5.0 % by weight urea in the rehydration solution) is given as 37.8 s.

Turning to `Cl.N=C(N)N` [guanidine, guanidine hydrochloride], the “time until the onset of coagulation” value is on record as 175.6 s in assay [3] (0.25 % by weight guanidine in the rehydration solution); 223.4 s in assay [3] (setting [5]); 305.6 s in assay [3] (0.75 % by weight guanidine in the rehydration solution); 33.1 s in assay [4] (setting [5]); 41.9 s in assay [4] (1.0 % by weight guanidine in the rehydration solution); 51.8 s in assay [4] (1.5 % by weight guanidine in the rehydration solution).

On to `CNC(N)=O` [N-methyl-urea], for which the figures for the “time until the onset of coagulation” value in assay [4] (2.0 % by weight N-methyl-urea in the rehydration solution), in assay [4] (3.5 % by weight N-methyl-urea in the rehydration solution) and in assay [4] (5.0 % by weight N-methyl-urea in the rehydration solution) were 34.0 s, 38.6 s and 44.0 s, respectively.
